Paper PMC6624297 (Cell Death & Disease, 2019)

Tests used:
[1] = test system: HUVECs; test: Tube formation in vitro; format: cell-based, human
Method: Matrigel was thawed at 4 °C and 50 μL of the solution were added to each well in a 96-well plate and formed a gel at 37 °C for 30 min. HUVECs were suspended at 1 × 10^4 cells in 100 μL of A549 cell supernatant with or without L14e (0, 0.5, 1.0, and 1.5 μM), and then added to each well. After 24h-incubation, the degree of tube formation was determined by counting the number of areas surrounded by tubes contained in 10 random fields, and expressed as mean ± SD. Using Image J for data analysis.

[2] = test system: A549 cells; test: Cell cycle PI staining FACS, A549; format: cell-based, human; details: A549, 0.5, 1.0, 1.5 μM, 24 h
Source text: TS is a crucial enzyme in the DNA synthesis stage. When it is inhibited, first to show cell cycle arrest at G1/S phase. […] Flow cytometry show (Fig. 3), as the concentration of the compound increases, the cells in the G0/G1 phase increase, the cells in the S phase and the G2/M phase decrease. Eventually, the proliferation of cancer cells was inhibited by the G1/S phase arrest of the compound L14e.

[3] = biological target: EGFR kinase (Homo sapiens, UniProt P00533); test: ADP-Glo kinase assay, EGFR; format: biochemical; details: averages from triplicate assays
Sequence of EGFR kinase (P00533 25-1210): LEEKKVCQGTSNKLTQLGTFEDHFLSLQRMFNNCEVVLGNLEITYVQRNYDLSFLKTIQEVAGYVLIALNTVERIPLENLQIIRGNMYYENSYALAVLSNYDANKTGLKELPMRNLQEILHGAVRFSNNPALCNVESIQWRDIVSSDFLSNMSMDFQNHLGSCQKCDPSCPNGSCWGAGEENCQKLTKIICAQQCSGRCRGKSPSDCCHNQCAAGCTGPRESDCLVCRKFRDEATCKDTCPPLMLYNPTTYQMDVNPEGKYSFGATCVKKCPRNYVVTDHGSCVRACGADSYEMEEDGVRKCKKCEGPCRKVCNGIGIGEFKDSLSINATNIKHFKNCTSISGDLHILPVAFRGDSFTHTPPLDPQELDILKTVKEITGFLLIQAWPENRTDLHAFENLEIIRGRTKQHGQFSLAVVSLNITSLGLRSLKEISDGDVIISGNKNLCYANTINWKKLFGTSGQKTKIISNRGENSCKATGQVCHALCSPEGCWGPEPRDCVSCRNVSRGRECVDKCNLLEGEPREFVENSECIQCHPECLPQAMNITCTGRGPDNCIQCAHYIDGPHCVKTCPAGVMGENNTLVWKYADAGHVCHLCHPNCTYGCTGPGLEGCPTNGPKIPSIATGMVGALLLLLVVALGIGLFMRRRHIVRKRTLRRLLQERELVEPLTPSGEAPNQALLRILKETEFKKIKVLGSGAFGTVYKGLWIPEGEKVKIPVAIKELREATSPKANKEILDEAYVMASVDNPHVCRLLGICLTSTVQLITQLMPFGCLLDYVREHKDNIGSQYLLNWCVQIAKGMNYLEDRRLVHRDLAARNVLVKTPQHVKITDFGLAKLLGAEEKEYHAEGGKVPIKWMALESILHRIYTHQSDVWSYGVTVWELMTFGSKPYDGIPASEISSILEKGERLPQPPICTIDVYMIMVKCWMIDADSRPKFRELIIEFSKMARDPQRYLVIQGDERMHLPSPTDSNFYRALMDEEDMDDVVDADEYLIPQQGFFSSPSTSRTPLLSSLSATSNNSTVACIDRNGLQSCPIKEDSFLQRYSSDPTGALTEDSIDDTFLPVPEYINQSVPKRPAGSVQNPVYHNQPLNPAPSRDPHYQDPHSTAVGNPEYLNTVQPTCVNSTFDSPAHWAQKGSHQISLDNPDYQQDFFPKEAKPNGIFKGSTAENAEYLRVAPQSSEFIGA
Method: The ADP-Glo™ kinase assay (Promega, Madison, WI) was used to screen target compounds for their inhibition effects for BRaf, EGFR kinase. The kinase assay was carried out in a 96-well plate, in a volume of 25 μL HEPES (pH 7.3) solvent containing 1.6 μg/mL EGF, and 20 ng of EGFR kinase, or 50 ng BRaf kinase, and 10 μM ATP (Promega, Madison, WI). […] Reactions in each well were started immediately by adding ATP and kept going for half an hour under 30 °C in a constant temperature incubator (Bluepard, Shanghai, China). After the plate cooled for 5 min at room temperature, 25 μl of ADP-Glo reagent was added into each well to stop the reaction and consume the remaining […] within 40 min. At the end, 50 μl of kinase detection reagent was added into the well and incubated for 1 h to produce a luminescence signal.

[4] = test system: p-EGFR, p-AKT, p-ERK1/2; test: Western blot EGFR signaling pathway, A549; format: cell-based, human; details: A549, 0.5, 1.0, 1.5 μM, 24 h, EGF 50 ng/ml
Method: (§1) A549 cells, H460 cells and HUVECs were treated with different concentrations of compound L14e for 24 h. Primary antibodies (100 μL/cm^2): P53(10442-1-AP, Proteintech Group),caspase-3 (19677-1-AP, Proteintech Group), bax (50599-2-lg, Proteintech Group), bcl-2 (12789-1-AP, Proteintech Group), cleaved caspase-3 (25546-1-AP, Proteintech Group), β-actin (60008-1-lg, Proteintech Group), EGFR (ab21074, Abcam), AKT (#2920, Cell Signaling Technology), ERK1/2 (#4370, Cell Signaling Technology), VEGFR-2 (#9698, Cell Signaling Technology), p-EGFR (ab40815, Abcam), p-AKT (#4060, Cell Signaling Technology), p-ERK1/2 (#4695, Cell Signaling Technology), p-VEGFR-2 (#3770, Cell Signaling Technology), and GAPDH (ab181603, Abcam). The cellular levels of proteins were determined by standard Western blotting. Details were given in Supplementary Materials and Methods.
(§2) A549 cells, H460 cells and HUVECs were treated with different concentrations of compound L14e for 24 h, and collected to establish their respective treatment groups. […]
(§3) Extracted proteins were separated from each other using polyacrylamide electrophoresis on a 10 % gel (Beyotime Biotechnology Company, Shanghai, China) and transferred to a polyvinylidene fluoride (PVDF) membrane. […] Gray values of protein bands were quantitatively analyzed, with the gray value of β-actin(GAPDH) band as the reference.

[5] = test system: p-EGFR, p-AKT, p-ERK1/2; test: Western blot EGFR signaling pathway, H460; format: cell-based, human; details: H460, 0.5, 1.0, 1.5 μM, 24 h, EGF 50 ng/ml
Method: as §1, §2, §3

[6] = biological target: T1, human TS (hTS) (Homo sapiens, UniProt P04818); test: Thymidylate synthase (TS) spectrophotometric assay; format: biochemical; details: averages from triplicate assays
T1 construct: purchased ProSpec-Tany
T1 sequence (P04818 whole entry): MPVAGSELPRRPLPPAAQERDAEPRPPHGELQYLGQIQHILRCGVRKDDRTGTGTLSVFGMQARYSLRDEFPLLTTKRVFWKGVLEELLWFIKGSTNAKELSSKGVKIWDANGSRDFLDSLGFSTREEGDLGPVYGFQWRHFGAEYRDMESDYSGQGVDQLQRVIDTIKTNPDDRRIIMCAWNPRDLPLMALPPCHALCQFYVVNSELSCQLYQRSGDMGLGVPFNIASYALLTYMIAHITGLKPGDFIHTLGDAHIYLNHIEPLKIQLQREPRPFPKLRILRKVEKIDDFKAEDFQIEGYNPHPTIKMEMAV
Method: Recombinant human thymidylate synthase purchased from ProSpec-Tany Company. TS was assayed spectrophotometrically at 30 °C and pH 7.4 in a mixture containing 0.1 M 2-mercaptoethanol, 0.0003 M (6R,S)-tetrahydrofolate, 0.012 M formaldehyde, 0.02 M MgCl2, 0.001 M dUMP, 0.04 M Tris–HCl, 30 nM hTS, and 0.00075 M NaEDTA. […] The reaction was initiated by the addition of an amount of enzyme yielding a change in absorbance at 340 nm of 0.016/min in the absence of inhibitor.

**Q.** Which results are given for `O=C(Nc1cccc(Cl)c1)Nc1ccccc1NS(=O)(=O)c1c[nH]c(=O)[nH]c1=O` [Compound L14e, N'-(3-chlorophenyl)-2-(2,4-dihydroxypyrimidine-5-sulfonamido)phenyl urea]?
**A.** expression of phosphorylated VEGFR-2 (Tyr1175) in HUVECs ([1]; dose-dependent): inhibiting the expression of phosphorylated VEGFR-2; tube formation of HUVECs ([1]; supernatant of A549 cells treated with 0.5, 1.0, 1.5 μM, 24 h): inhibited tube formation; effect on cell cycle [2]: arrest the cell cycle in the G1/S phase; IC50 [3]: 1920 nM; expression of phosphorylated EGFR (Tyr1068) and AKT (Ser473) [4]: significantly reduced; expression of phosphorylated EGFR (Tyr1068) and AKT (Ser473) [5]: significantly reduced; IC50 [6]: 1060 nM
